We go through four compounds from ChEMBL document CHEMBL1126682, “Quinolone antimicrobial agents substituted with morpholines at the 7-position. Syntheses and structure-activity relationships” (J Med Chem, 1993).

Molecules are shown by their SMILES. Converted amounts (≈) assume the structure as drawn. Bounds are passed on as bounds.

For data set [1], the target named is T1, GABA-A receptor; anion channel (Homo sapiens) (UniProt P14867+P47870+P18507+P28472+P48169+Q99928+Q9UN88+P34903+O00591+O14764+Q8N1C3+P18505+P78334+P47869+P31644+Q16445). Kind of data set: Percentage of GABA-induced chloride currents with 10 e-5 M 4-biphenylacetic acid. It counts as functional. Particulars: Bull Frog.
Data set [2] deals with GABA-A receptor; anion channel. The data set can be described thus: Inhibition of [3H]muscimol binding to GABA A receptor with 10 e-4 M 4-biphenylacetic acid. The class given is protein-complex assay.
Data set [3] concerns the target T1, GABA-A receptor; anion channel (Homo sapiens). Kind of data set: Percentage of GABA-induced chloride currents with compound alone at 10 e-4 M. The following applies: Bull Frog. The class given is functional.
The test system of data set [4] is Mus musculus. The data set can be described thus: Percentage of mice with convulsion (400 mg/kg fenbufen). The class given is functional.
Data set [5] has as its system Staphylococcus aureus. Kind of data set: Minimum inhibition concentration against Staphylococcus aureus MRSA strain. It counts as functional.
The next data set has as its system Streptococcus pneumoniae. The data set can be described thus: Minimum inhibition concentration against Streptococcus pneumoniae Type I strain. It counts as functional.
A further data set relates to Enterococcus faecalis. The data set can be described thus: Minimum inhibition concentration against Enterococcus faecalis LS-101 strain. It counts as functional.
In another data set the test system is Pseudomonas aeruginosa. Kind of data set: Minimum inhibition concentration against Pseudomonas aeruginosa U-31 strain. The class given is functional.
For data set [6], the system named is Escherichia coli. The data set can be described thus: Minimum inhibition concentration against Escherichia coli NIHJ JC-2 strain. It counts as functional.
The test system of data set [7] is Mus musculus. Kind of data set: Percentage of mice with convulsion with compound alone at 400 mg/kg. The class given is functional.
For data set [8], the target named is GABA-A receptor; anion channel. The data set can be described thus: Inhibition of [3H]muscimol binding to GABA A receptor with compound alone at 10 e-4 M. It counts as protein-complex assay.
The target of data set [9] is T1, GABA-A receptor; anion channel (Homo sapiens). Kind of data set: Percentage of GABA-induced chloride currents with 10e-4 M 4-biphenylacetic acid. It counts as functional. The following applies: Bull Frog.
The subject of data set [10] is Staphylococcus aureus. Kind of data set: Minimum inhibition concentration against Staphylococcus aureus FDA209P strain. The class given is functional.
In data set [11] the target is GABA-A receptor; anion channel. Kind of data set: Inhibition of [3H]muscimol binding to GABA A receptor 4-biphenylacetic acid at 10 e-4 M. It counts as protein-complex assay. The following applies: read-out: IC50.
Data set [12] deals with T1, GABA-A receptor; anion channel (Homo sapiens). Kind of data set: Percentage of GABA-induced chloride currents, compound with 10E-4 M 4-biphenylacetic acid. It counts as functional. Particulars: Bull Frog.
In data set [13] the test system is Escherichia coli. Kind of data set: Minimum inhibitory concentration against Escherichia coli KC14 strain. It counts as functional.
For data set [14], the system named is Staphylococcus aureus. The data set can be described thus: Effective dose against Staphylococcus aureus smith strain in mouse. It counts as functional.
Data set [15] in a line: The compound was evaluated for the solubility in water at 25 degrees Centigrade. It counts as ADME.
For data set [16], the system named is Escherichia coli. The data set can be described thus: Effective dose against Escherichia coli KC14 strain in mouse. It counts as functional.
Data set [17] concerns Staphylococcus aureus. Kind of data set: Minimum inhibitory concentration against Staphylococcus aureus Smith. It counts as functional.

As a reminder, the IC50 is the midpoint of a concentration-inhibition curve. In general, MIC refers to the lowest concentration found to suppress growth. Higher therefore signals a need for much substance. What is called solubility is the concentration that dissolves in the medium under given conditions.

For the compound `CCn1cc(C(=O)O)c(=O)c2cc(F)c(N3CCOCC3)cc21`, the figures for the Currents in data set [1], in data set [3] and in [9] were 100%, 100% and 92%, respectively. Moreover, the half-inhibitory concentration (IC50) in [2] and in data set [8] was more than 100 µM in each case. Besides, the Convulsion in the data set on Mus musculus [4] and in the data set with Mus musculus [7] was 0% each time. In addition, the MIC against Staphylococcus aureus [5] was found to be 0.39 µg/mL (≈ 1.22 µM); with Streptococcus pneumoniae it was 12.5 µg/mL (≈ 39 µM); in the data set on Enterococcus faecalis it was 3.13 µg/mL (≈ 9.77 µM); against Pseudomonas aeruginosa it was 3.13 µg/mL (≈ 9.77 µM); with Escherichia coli [6], 0.78 µg/mL (≈ 2.44 µM); in the data set with Staphylococcus aureus [10] it was 0.2 µg/mL (≈ 0.624 µM).

On to `O=C(O)c1cn(C2CC2)c2c(F)c(N3CCOCC3)c(F)cc2c1=O`, for which the IC50 in data set [11] is more than 100000 nM; in [8] it was more than 100 µM. The Currents in [1] is 91%; in data set [3], 91%; in data set [12] it was 71%. Besides, the Convulsion in the data set with Mus musculus [4] and in the data set on Mus musculus [7] was 0% each time. Besides, the MIC is 0.05 µg/mL (≈ 0.143 µM) in the data set with Staphylococcus aureus [5]; 0.1 µg/mL (≈ 0.285 µM) in the data set on Escherichia coli [13]; 0.39 µg/mL (≈ 1.11 µM) in the data set on Streptococcus pneumoniae; 0.78 µg/mL (≈ 2.23 µM) against Enterococcus faecalis; 0.78 µg/mL (≈ 2.23 µM) in the data set on Pseudomonas aeruginosa; 0.1 µg/mL (≈ 0.285 µM) with Escherichia coli [6]. In addition, the MIC in the data set with Staphylococcus aureus [17] is 0.05 µg/mL (≈ 0.143 µM); with Staphylococcus aureus [10], 0.025 µg/mL (≈ 0.0714 µM). Besides, the ED50 in the data set with Staphylococcus aureus [14] stood at 1.304 mg mouse-1; in the data set with Escherichia coli [16] it was 0.056 mg mouse-1. This compound returned a solubility in data set [15] of 9 µg/mL (≈ 25.7 µM).

Take `CCn1cc(C(=O)O)c(=O)c2cc(F)c(N3CCNCC3)cc21` [NORFLOXACIN]: the IC50 was found to be 20 nM in data set [11] and 13 µM in data set [8]. Further, the Currents in data set [1] turned out to be 0%; in data set [3], 38%. In addition, the Convulsion with Mus musculus [4] is 100%; in the data set with Mus musculus [7], 0%. Also, the MIC with Staphylococcus aureus [5] is 12.5 µg/mL (≈ 39.1 µM); in the data set on Escherichia coli [13], 0.05 µg/mL (≈ 0.157 µM); against Streptococcus pneumoniae, 3.13 µg/mL (≈ 9.8 µM); with Enterococcus faecalis it was 0.78 µg/mL (≈ 2.44 µM); against Pseudomonas aeruginosa it was 0.39 µg/mL (≈ 1.22 µM); with Escherichia coli [6], 0.1 µg/mL (≈ 0.313 µM). The MIC came out at 0.2 µg/mL (≈ 0.626 µM) in the data set with Staphylococcus aureus [17] and 0.39 µg/mL (≈ 1.22 µM) in the data set on Staphylococcus aureus [10]. For the same compound, the results for the ED50 in the data set on Staphylococcus aureus [14] and in the data set on Escherichia coli [16] were 1 mg mouse-1 and 0.054 mg mouse-1, respectively. In addition, the concentration in solution in data set [15] (solubility) was 290 µg/mL (≈ 908 µM).

For the compound `O=C(O)c1cn(C2CC2)c2cc(N3CCOCC3)c(F)cc2c1=O`, the values for the Currents in data set [1], in data set [3] and in [9] were 99%, 100% and 91%, respectively. Further, the IC50 in data set [2] and in [8] was more than 100 µM in each case. Further, the Convulsion in the data set with Mus musculus [4] and with Mus musculus [7] was 0% each time. In addition, the MIC stood at 0.1 µg/mL (≈ 0.301 µM) in the data set on Staphylococcus aureus [5]; 3.13 µg/mL (≈ 9.42 µM) in the data set on Streptococcus pneumoniae; 0.78 µg/mL (≈ 2.35 µM) in the data set on Enterococcus faecalis; 1.56 µg/mL (≈ 4.69 µM) with Pseudomonas aeruginosa; 0.2 µg/mL (≈ 0.602 µM) against Escherichia coli [6]; 0.05 µg/mL (≈ 0.15 µM) against Staphylococcus aureus [10].
